Laboratory results as given in PubChem BioAssay AID248 (DTP/NCI, 2004).
“And” between values parts separate entries of the source, which are not always exact repeats. Identical values can stand only once. Inconclusive results and toxic doses are left out. Cut-off read from the data, not from the text of the source: active = T/C of 150% or more; inactive = T/C below 125%.

System: L1210 leukemia ip in BDF1 mice, survival T/C
Assay: NCI In Vivo Anticancer Drug Screen. Data for tumor model L1210 Leukemia (intraperitoneal) in B6D2F1 (BDF1) mice
Details: endpoint: mean survival time, higher = longer survival
Procedure, shortened: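 Transplantable tumor model; survival measured in treated vs vehicle control mice. Value = treated/control.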

[1] = dose: 100.0 mg/kg/injection, schedule: Q01DX001 (ip), vehicle: carboxymethylcellulose (CMC)
[2] = dose: 100.0 mg/kg/injection, schedule: Q01DX001 (ip), vehicle: saline
[3] = dose: 200.0 mg/kg/injection, schedule: Q01DX001 (ip), vehicle: carboxymethylcellulose (CMC)
[4] = dose: 200.0 mg/kg/injection, schedule: Q01DX001 (ip), vehicle: saline
[5] = dose: 400.0 mg/kg/injection, schedule: Q01DX001 (ip), vehicle: carboxymethylcellulose (CMC)
[6] = dose: 400.0 mg/kg/injection, schedule: Q01DX001 (ip), vehicle: saline
[7] = dose: 100.0 mg/kg/injection, schedule: Q04DX002 (ip), vehicle: Klucel (hydroxypropylcellulose) (HPC)
[8] = dose: 200.0 mg/kg/injection, schedule: Q04DX002 (ip), vehicle: Klucel (hydroxypropylcellulose) (HPC)
[9] = dose: 100.0 mg/kg/injection, schedule: Q04DX003 (ip), vehicle: saline with Tween-80
[10] = dose: 200.0 mg/kg/injection, schedule: Q04DX003 (ip), vehicle: saline with Tween-80
[11] = dose: 100.0 mg/kg/injection, schedule: Q04DX003 (ip), vehicle: Klucel (hydroxypropylcellulose) (HPC)

Measured: T/C

Cc1ccc(S(=O)(=O)OC2CCCC3CC(=O)CCC32C)cc1 (centres undefined)
inactive: dose: 50.0 mg/kg/injection, schedule: Q01DX001 (ip), vehicle: saline 101 % of control | [1] 103 % of control | [2] 101 % of control | [3] 105 % of control | [4] 95 % of control | [5] 103 % of control | [6] 98 % of control

Cc1c(C(=O)O)nnn1-c1ccc(Cl)cc1Cl
inactive: [7] 97 % of control | [8] 101 % of control

CN(C)C(=N)C(=N)N(C)C
inactive: dose: 100.0 mg/kg/injection, schedule: Q01DX009 (ip), vehicle: saline 96 % of control | dose: 100.0 mg/kg/injection, schedule: Q04DX003 (ip), vehicle: saline 98 % of control | dose: 200.0 mg/kg/injection, schedule: Q01DX009 (ip), vehicle: saline 88 % of control | dose: 200.0 mg/kg/injection, schedule: Q04DX003 (ip), vehicle: saline 100 % of control | dose: 400.0 mg/kg/injection, schedule: Q01DX009 (ip), vehicle: saline 94 % of control | dose: 400.0 mg/kg/injection, schedule: Q04DX003 (ip), vehicle: saline 93 % of control

CC(C)COC(=O)CCCCC(=O)OCC(C)C
inactive: [9] 113 % of control | [10] 107 % of control | dose: 400.0 mg/kg/injection, schedule: Q04DX003 (ip), vehicle: saline with Tween-80 110 % of control

COC(=O)c1ccccc1NC(=O)c1ccco1
inactive: dose: 100.0 mg/kg/injection, schedule: Q01DX009 (ip), vehicle: Klucel (hydroxypropylcellulose) (HPC) 97 % of control | dose: 200.0 mg/kg/injection, schedule: Q01DX009 (ip), vehicle: Klucel (hydroxypropylcellulose) (HPC) 96 % of control | dose: 400.0 mg/kg/injection, schedule: Q01DX009 (ip), vehicle: Klucel (hydroxypropylcellulose) (HPC) 91 % of control

O=C1CCC2CN3CCc4c([nH]c5ccccc45)C3CC2C1 (centres undefined)
inactive: dose: 75.0 mg/kg/injection, schedule: Q01DX001 (ip), vehicle: other 110 % of control

CCSCC1OC2OC(C)(C)OC2C1O (centres undefined)
inactive: [2] 97 % of control | [4] 111 % of control | [6] 97 % of control

CC1(C)Cc2c(OC(N)=O)cccc2O1
inactive: dose: 25.0 mg/kg/injection, schedule: Q01DX001 (ip), vehicle: Klucel (hydroxypropylcellulose) (HPC) 102 % of control | dose: 50.0 mg/kg/injection, schedule: Q01DX001 (ip), vehicle: Klucel (hydroxypropylcellulose) (HPC) 98 % of control

CNC(=O)Nc1ccccc1C(=O)NN
inactive: dose: 100.0 mg/kg/injection, schedule: Q01DX009 (ip), vehicle: other 100 % of control | dose: 200.0 mg/kg/injection, schedule: Q01DX009 (ip), vehicle: other 96 % of control

CC(C)(O)C(Cl)S(=O)c1ccccc1 (centres undefined)
inactive: dose: 75.0 mg/kg/injection, schedule: Q03DX002 (ip), vehicle: saline with Tween-80 113 % of control | dose: 300.0 mg/kg/injection, schedule: Q03DX002 (ip), vehicle: saline with Tween-80 117 % of control

c1scc2c1COCc1cscc1-2
inactive: dose: 100.0 mg/kg/injection, schedule: Q01DX001 (ip), vehicle: saline with Tween-80 94 % of control | dose: 200.0 mg/kg/injection, schedule: Q01DX001 (ip), vehicle: saline with Tween-80 94 % of control | dose: 400.0 mg/kg/injection, schedule: Q01DX001 (ip), vehicle: saline with Tween-80 88 % of control

CN(C)c1ccc(/C=C/C(=O)c2ccc([N+](=O)[O-])cc2)c(Cl)c1
inactive: [11] 92 % of control | dose: 200.0 mg/kg/injection, schedule: Q04DX003 (ip), vehicle: Klucel (hydroxypropylcellulose) (HPC) 97 % of control | dose: 400.0 mg/kg/injection, schedule: Q04DX003 (ip), vehicle: Klucel (hydroxypropylcellulose) (HPC) 97 % of control

CCN(CC)CCCC(C)Nc1ncnc2ncc3c(c12)CCCC3 (centres undefined)
inactive: dose: 100.0 mg/kg/injection, schedule: Q04DX002 (ip), vehicle: saline 102 % of control | dose: 200.0 mg/kg/injection, schedule: Q04DX002 (ip), vehicle: saline 98 % of control

CC(CN(C)C)CN1c2ccccc2Sc2ccc(C(F)(F)F)cc21 (centres undefined)
inactive: dose: 0.78 mg/kg/injection, schedule: Q04DX003 (ip), vehicle: saline 108 % of control | dose: 1.56 mg/kg/injection, schedule: Q01DX009 (ip), vehicle: saline 111 % of control | dose: 1.56 mg/kg/injection, schedule: Q04DX003 (ip), vehicle: saline 96 % of control | dose: 3.12 mg/kg/injection, schedule: Q01DX009 (ip), vehicle: saline 104 % of control | dose: 3.12 mg/kg/injection, schedule: Q04DX003 (ip), vehicle: saline 105 % of control | dose: 6.25 mg/kg/injection, schedule: Q01DX009 (ip), vehicle: saline 105 % of control | dose: 6.25 mg/kg/injection, schedule: Q04DX003 (ip), vehicle: saline 97 % of control | dose: 12.5 mg/kg/injection, schedule: Q01DX009 (ip), vehicle: saline 109 % of control | dose: 12.5 mg/kg/injection, schedule: Q04DX003 (ip), vehicle: saline 105 % of control | dose: 25.0 mg/kg/injection, schedule: Q04DX003 (ip), vehicle: saline 109 % of control

C#CC(C)N1CCC2(CC1)C(=O)NCN2c1ccccc1 (centres undefined)
inactive: dose: 100.0 mg/kg/injection, schedule: Q01DX001 (ip), vehicle: Klucel (hydroxypropylcellulose) (HPC) 98 % of control | dose: 200.0 mg/kg/injection, schedule: Q01DX001 (ip), vehicle: Klucel (hydroxypropylcellulose) (HPC) 97 % of control | dose: 400.0 mg/kg/injection, schedule: Q01DX001 (ip), vehicle: Klucel (hydroxypropylcellulose) (HPC) 95 % of control

Oc1cccc2oc(=S)[nH]c12
inactive: dose: 25.0 mg/kg/injection, schedule: Q04DX003 (ip), vehicle: Klucel (hydroxypropylcellulose) (HPC) 106 % of control | dose: 50.0 mg/kg/injection, schedule: Q04DX003 (ip), vehicle: Klucel (hydroxypropylcellulose) (HPC) 92 % of control | [11] 103 % of control | [9] 95 % of control and 100 % of control | [10] 110 % of control

Clc1cc(CBr)c(CBr)cc1Cl
inactive: dose: 12.5 mg/kg/injection, schedule: Q04DX003 (ip), vehicle: saline with Tween-80 94 % of control | dose: 25.0 mg/kg/injection, schedule: Q04DX003 (ip), vehicle: saline with Tween-80 97 % of control | dose: 50.0 mg/kg/injection, schedule: Q04DX003 (ip), vehicle: saline with Tween-80 91 % of control

C=COC(=O)NCC(=O)O
inactive: [2] 91 % of control | [4] 97 % of control | [6] 92 % of control

C=CCc1ccc(OC(=O)Nc2cccc3ccccc23)c(OC)c1
inactive: [7] 96 % of control | [8] 124 % of control | dose: 400.0 mg/kg/injection, schedule: Q04DX002 (ip), vehicle: Klucel (hydroxypropylcellulose) (HPC) 93 % of control

CN(C)c1ncnc2c1ncn2C1OC(CO)C2NP(=O)(N(CCCl)CCCl)OC21 (centres undefined)
inactive: dose: 75.0 mg/kg/injection, schedule: Q01DX001 (ip), vehicle: saline 103 % of control | dose: 150.0 mg/kg/injection, schedule: Q01DX001 (ip), vehicle: saline 119 % of control

Cc1nccc2c(C)c3sc4ccccc4c3cc12
inactive: dose: 124.0 mg/kg/injection, schedule: Q01DX001 (ip), vehicle: alcohol 96 % of control | dose: 186.0 mg/kg/injection, schedule: Q01DX001 (ip), vehicle: alcohol 110 % of control | dose: 280.0 mg/kg/injection, schedule: Q01DX001 (ip), vehicle: alcohol 117 % of control | dose: 320.0 mg/kg/injection, schedule: Q01DX001 (ip), vehicle: alcohol 109 % of control

Clc1ccc([PH+](c2ccc(Cl)cc2)c2ccc(Cl)cc2)cc1.Clc1ccc([PH+](c2ccc(Cl)cc2)c2ccc(Cl)cc2)cc1.[Cl][Hg][Cl]
inactive: dose: 6.25 mg/kg/injection, schedule: Q01DX009 (ip), vehicle: Klucel (hydroxypropylcellulose) (HPC) 108 % of control | dose: 12.5 mg/kg/injection, schedule: Q01DX009 (ip), vehicle: Klucel (hydroxypropylcellulose) (HPC) 94 % of control | dose: 25.0 mg/kg/injection, schedule: Q01DX009 (ip), vehicle: Klucel (hydroxypropylcellulose) (HPC) 97 % of control | dose: 50.0 mg/kg/injection, schedule: Q01DX009 (ip), vehicle: Klucel (hydroxypropylcellulose) (HPC) 96 % of control

Oc1ccc(N=C/C=C/c2ccccc2)cc1
inactive: [1] 86 % of control | [3] 89 % of control | [5] 91 % of control
